Where two headings read alike, the source gives them in different places.

Common to all, as to format: in vivo
Series [1] in a line: Mammalian toxicity, oral, Swiss white mice. As to conditions: mouse, in vivo, po. The protocol:
(§1) Mammalian toxicity was determined against Swiss white mice. The test compound was applied orally using corn oil as the carrier. Results are given as LD50 in mg of compound per kg body weight.
(§2) The term "LD50 " represents the dose needed to kill 50% of the test animals. In interpreting the values in the table above, the lower the value for LD50 for house flies, the greater the insecticidal potency or toxicity of that particular compound. On the other hand, the higher the value of LD50 for mice, the lower the mammalian toxicity or the greater is the mammalian safety of such compound.

Series [2] relates to house flies, Musca domestica. The experiment in a line: Insecticidal activity against house flies, topical application on the notum, 24 h mortality. As to conditions: for LD50: Musca domestica. As to the method: Representative compounds of the N-alkoxysulfenylcarbamate esters of the invention were tested for insecticidal activity against house flies, Musca domestica. Stock 1% concentrated solutions of each of the test compounds were made in acetone, and such solutions diluted with acetone to a concentration of 0.001-0.1%. House flies were treated topically on the notum by 1 μl of each of the diluted acetone solutions and percent mortality was counted 24 hours after application. Insects were held at constant temperature of 60° F.
as §2

A further series relates to Swiss white mice. Kind of series: Mammalian toxicity, oral, Swiss white mice. As to conditions: mice / mammals; comparison with parent carbamate or purified compound. The protocol: as §1, §2
Where [3] appears, read: Table 2, polysulfide derivatives, oral in corn oil, read-out: Mice Toxicity LD50.
[4] abbreviates: Table 1, oral in corn oil, samples contained polysulfide derivative in the amounts indicated, read-out: Mice LD50.

One may read the LD50 as the dose expected to kill half of the subjects tested. In the case of `CCCCCCOSN(C)C(=O)Oc1cccc2c1OC(C)(C)C2` [CH2 (CH2)4 CH3, n = 1, 2,3-dihydro-2,2-dimethyl-7-benzofuranyl(hexyloxysulfenyl)(methyl)carbamate], the LD50 in series [1] (setting [3]) was 37 mg/kg. The “House flies LD50” value in series [2] (Table 2, polysulfide derivatives) worked out at 9.3 µg/g.
With `CCCCCCOSSN(C)C(=O)Oc1cccc2c1OC(C)(C)C2` [CH2 (CH2)4 CH3, n = 2, disulfide derivative of 2,3-dihydro-2,2-dimethyl-7-benzofuranyl(hexyloxysulfenyl)(methyl)carbamate], the LD50 in series [1] (setting [3]) came to 72 mg/kg; in series [2] (read-out: House flies LD50) it was 13 mg/kg.
On to `COSSN(C)C(=O)Oc1cccc2c1OC(C)(C)C2` [CH3, n = 2, disulfide derivative of 2,3-dihydro-2,2-dimethyl-7-benzofuranyl(methoxysulfenyl)(methyl)carbamate], for which the LD50 in series [1] (setting [3]) was determined as 48 mg/kg; in series [2] (read-out: House flies LD50), 20.5 mg/kg.
Consider `CNC(=O)Oc1cccc2c1OC(C)(C)C2` [Carbofuran, 2,3-dihydro-2,2-dimethyl-7-benzofuranyl methylcarbamate, reference compound], for which the LD50 in series [1] (setting [3]) was 11 to 19 mg/kg; in series [1] (read-out: LD50 for mice), 11 mg/kg; in series [2] (read-out: House flies LD50) it was 11 mg/kg; in series [2] (read-out: LD50 value for house flies), roughly 11 mg/kg.
In the case of `COSN(C)C(=O)Oc1cccc2c1OC(C)(C)C2` [Example 1, 2,3-dihydro-2,2-dimethyl-7-benzofuranyl(methoxysulfenyl)(methyl)carbamate], the LD50 in series [1] (setting [4]) was 43 mg/kg; in series [1] (setting [3]) it was 43 mg/kg; in series [2] (read-out: House flies LD50) it was 15.5 mg/kg.
With `CCOSN(C)C(=O)Oc1cccc2c1OC(C)(C)C2` [Example 2, 2,3-dihydro-2,2-dimethyl-7-benzofuranyl(ethoxysulfenyl)(methyl)carbamate], the LD50 in series [1] (setting [4]) came out at 46 mg/kg; in series [2] (read-out: House flies LD50), 15.8 mg/kg.
In the same order, the values of `CC(C)OSN(C)C(=O)Oc1cccc2c1OC(C)(C)C2` [Example 3, 2,3-dihydro-2,2-dimethyl-7-benzofuranyl(isopropoxysulfenyl)(methyl)carbamate] are 55 to 70 mg/kg and 31 mg/kg.
The corresponding values for `CCCCCCOSN(C)C(=O)Oc1cccc2c1OC(C)(C)C2` [Example 4, 2,3-dihydro-2,2-dimethyl-7-benzofuranyl(hexyloxysulfenyl)(methyl)carbamate] are 88 mg/kg and 9.3 mg/kg.
Consider `CN(SOC1CCCCC1)C(=O)Oc1cccc2c1OC(C)(C)C2` [Example 5, 2,3-dihydro-2,2-dimethyl-7-benzofuranyl(cyclohexyloxysulfenyl)(methyl)carbamate], for which the results for the median lethal dose (LD50) in series [1] (setting [4]) and in series [2] (read-out: House flies LD50) were 69 mg/kg and 21.5 mg/kg, respectively.
For `CN(SOCc1ccccc1)C(=O)Oc1cccc2c1OC(C)(C)C2` [Example 6, 2,3-dihydro-2,2-dimethyl-7-benzofuranyl(benzyloxysulfenyl)(methyl)carbamate], the LD50 was 59 mg/kg in series [1] (setting [4]) and 7.5 mg/kg in series [2] (read-out: House flies LD50).
The corresponding values for `CCCCCCCCCCCCOSN(C)C(=O)Oc1cccc2c1OC(C)(C)C2` [Example 7, 2,3-dihydro-2,2-dimethyl-7-benzofuranyl(dodecyloxysulfenyl)(methyl)carbamate] are 340 mg/kg and 21 mg/kg.
In the same order, the values of `CCCCOSN(C)C(=O)Oc1ccccc1OC(C)C` [Example 8, 2-isopropoxyphenyl(butoxysulfenyl)(methyl)] are greater than 1000 mg/kg and 46 mg/kg.
As to `CC(C)Oc1ccccc1OC(=O)N(C)SOCc1ccccc1` [Example 9, 2-isopropoxyphenyl(benzyloxysulfenyl)(methyl)carbamate], the LD50 in series [1] (setting [4]) is greater than 1000 mg/kg; in series [1] (read-out: LD50 for mice), greater than 1000 mg/kg; in series [2] (read-out: House flies LD50) it was 30 mg/kg. For the same compound, in the series with Swiss white mice, the “mammalian toxicity / safety (in words)” value was “much safer to mammals”.
With `CCCCOSN(C)C(=O)Oc1cccc(C(C)C)c1` [Example 10, 3-isopropylphenyl(butoxysulfenyl)(methyl)carbamate], the LD50 in series [1] (setting [4]) was 130 mg/kg; in series [2] (read-out: House flies LD50), 120 mg/kg.
In the same order, the values of `CC(C)c1cccc(OC(=O)N(C)SOCc2ccccc2)c1` [Example 11, 3-isopropylphenyl(benzyloxysulfenyl)(methyl)carbamate] are 210 mg/kg and 175 mg/kg.
The corresponding values for `CCC(CC)OSN(C)C(=O)Oc1cccc2c1OC(C)(C)C2` [Example 12, 2,3-Dihydro-2,2-dimethyl-7-benzofuranyl (1-ethylpropoxysulfeny)(methyl)carbamate] are 63 mg/kg and 21 mg/kg.
In the same order, the values of `CN(SOC(C)(C)C)C(=O)Oc1cccc2c1OC(C)(C)C2` [Example 13, 2,3-Dihydro-2,2-dimethyl-7-benzofuranyl (tert-butoxysulfenyl)(methyl)carbamate] are 75 mg/kg and 20 to 30 mg/kg.
On to `CCCCCCCCOSN(C)C(=O)Oc1cccc2c1OC(C)(C)C2` [Example 14, 2,3-Dihydro-2,2-dimethyl-7-benzofuranyl (methyl)-(octyloxysulfenyl)carbamate], for which the LD50 in series [1] (setting [4]) is 100 mg/kg; in series [2] (read-out: House flies LD50) it was 13 mg/kg.
In the same order, the values of `CCCCCCCCCCOSN(C)C(=O)Oc1cccc2c1OC(C)(C)C2` [Example 15, 2,3-Dihydro-2,2-dimethyl-7-benzofuranyl (decyloxysulfenyl)(methyl)carbamate] are 135 mg/kg and 7.3 mg/kg.
In the same order, the values of `COc1ccc(COSN(C)C(=O)Oc2cccc3c2OC(C)(C)C3)cc1` [Example 16, 2,3-Dihydro-2,2-dimethyl-7-benzofuranyl (P--methoxybenzyloxysulfenyl)(methyl)carbamate] are 108 mg/kg and 13.8 mg/kg.
In the same order, the values of `CN(SOCc1ccc(C(C)(C)C)cc1)C(=O)Oc1cccc2c1OC(C)(C)C2` [Example 17, 2,3-Dihydro-2,2-dimethyl-7-benzofuranyl (P--tert-butylbenzyloxysulfenyl)(methyl)carbamate] are 98 mg/kg and 15.5 mg/kg.
`CCCCCCCCCCCCCCCCCCOSN(C)C(=O)Oc1cccc2c1OC(C)(C)C2` [Example 18, 2,3-Dihydro-2,2-dimethyl-7-benzofuranyl (methyl)(octadecyloxysulfenyl)carbamate]: the results for the LD50 in series [1] (setting [4]) and in series [2] (read-out: House flies LD50) were no less than 1000 mg/kg and 75 mg/kg, respectively.
With `CNC(=O)Oc1ccccc1OC(C)C` [propoxur, 2-isopropoxyphenyl methylcarbamate, reference compound], the LD50 in series [1] (read-out: LD50 for mice) worked out at 62 mg/kg.

For the origin of these results see patent US4394383A, “N-Alkoxysulfenylcarbamates useful as insecticides” (priority 1981, dated 1983).
